Assay results published in ChEMBL document CHEMBL3603836, “Hybrid pyrimidine alkynyls inhibit the clinically resistance related Bcr-Abl(T315I) mutant” (Bioorg Med Chem Lett, 2015).

Experiments:
cells = details: Mus musculus, BaF3, 72 h
Bcr/Abl fusion protein [1] = molecular target: Bcr/Abl fusion protein (Homo sapiens, UniProt P00519); format: protein assay
Description: Inhibition of wild type Bcr-Abl (unknown origin) using Tyr2 peptide substrate after 2 hrs by FRET-based Z'-lyte assay

K562 = test: cells; details: Homo sapiens, K562, 72 h
Description: Antiproliferative activity against human K562 cells expressing wild type Bcr-Abl after 72 hrs by CCK-8 assay

Bcr/Abl fusion protein [2] = molecular target: Bcr/Abl fusion protein (Homo sapiens, UniProt P00519, T315I); format: protein assay
[3] = Antiproliferative activity against mouse BA/F3 cells expressing wild type Bcr-Abl after 72 hrs by CCK-8 assay; format: functional, cell-based; details: BaF3, 72 h
Rattus norvegicus [4] = test: AUC (0 to infinity) in Sprague-Dawley rat at 25 mg/kg, po; format: ADME, organism-based; set-up: dose 25 mg/kg, time infinity, route oral; details: in vivo
[5] = Cmax in Sprague-Dawley rat at 10 mg/kg, iv; format: ADME, organism-based; set-up: dose 10 mg/kg, route intravenous; details: in vivo
Rattus norvegicus [6] = test: AUC (0 to infinity) in Sprague-Dawley rat at 10 mg/kg, iv; format: ADME, organism-based; set-up: dose 10 mg/kg, time infinity, route intravenous; details: in vivo
[7] = Cmax in Sprague-Dawley rat at 25 mg/kg, po; format: ADME, organism-based; set-up: dose 25 mg/kg, route oral; details: in vivo
[8] = Tmax in Sprague-Dawley rat at 10 mg/kg, iv; format: ADME, organism-based; details: in vivo
[9] = Half life in Sprague-Dawley rat at 25 mg/kg, po; format: ADME, organism-based; details: in vivo
[10] = Half life in Sprague-Dawley rat at 10 mg/kg, iv; format: ADME, organism-based; details: in vivo
[11] = Tmax in Sprague-Dawley rat at 25 mg/kg, po; format: ADME, organism-based; details: in vivo

IC50 (cells) [nM] | IC50 (Bcr/Abl fusion protein [1]) [nM] | IC50 (K562) [nM] | IC50 (Bcr/Abl fusion protein [2]) [nM] | AUC (Rattus norvegicus [4]) [µg/L/h] | Cmax [5] [ng/mL] | AUC (Rattus norvegicus [6]) [µg/L/h] | Cmax [7] [ng/mL] | Tmax [8] [min] | half-life [9] [h] | half-life [10] [h] | Tmax [11] [h] | SMILES | IC50 [3] [nM]
> 10000 | > 1000 | > 925 | > 1000 |  |  |  |  |  |  |  |  | Cc1cn(-c2cc(NC(=O)c3ccc(C)c(C#Cc4cnc(N5CCCC5)nc4)c3)cc(C(F)(F)F)c2)cn1 | > 1000
1080 | 18 | 13 | 19 |  |  |  |  |  |  |  |  | Cc1cn(-c2cc(NC(=O)c3ccc(C)c(C#Cc4cnc(NCCO)nc4)c3)cc(C(F)(F)F)c2)cn1 | 17
> 10000 | 904 | 640 | > 1000 |  |  |  |  |  |  |  |  | Cc1cn(-c2cc(NC(=O)c3ccc(C)c(C#Cc4cnc(N5CCCCC5)nc4)c3)cc(C(F)(F)F)c2)cn1 | 683
113 | 30 | 6 | 19 |  |  |  |  |  |  |  |  | CCNc1ncc(C#Cc2cc(C(=O)Nc3cc(-n4cnc(C)c4)cc(C(F)(F)F)c3)ccc2C)cn1 | 8
 |  | 22 |  |  |  |  |  |  |  |  |  | Cc1cn(-c2cc(NC(=O)c3ccc(C)c(Nc4nccc(-c5cccnc5)n4)c3)cc(C(F)(F)F)c2)cn1 [NILOTINIB] | 
8430 | 300 | 355 | > 1000 |  |  |  |  |  |  |  |  | Cc1cn(-c2cc(NC(=O)c3ccc(C)c(C#Cc4cnc(N5CCOCC5)nc4)c3)cc(C(F)(F)F)c2)cn1 | 292
> 1000 |  | 280 |  |  |  |  |  |  |  |  |  | Cc1ccc(NC(=O)c2ccc(CN3CCN(C)CC3)cc2)cc1Nc1nccc(-c2cccnc2)n1 [IMATINIB] | 
> 1000 |  | 1 |  |  |  |  |  |  |  |  |  | Cc1nc(Nc2ncc(C(=O)Nc3c(C)cccc3Cl)s2)cc(N2CCN(CCO)CC2)n1 [DASATINIB] | 

The remaining lines, values behind:

SMILES | IC50 (cells) [nM] | IC50 (Bcr/Abl fusion protein [1]) [nM] | IC50 (K562) [nM] | IC50 (Bcr/Abl fusion protein [2]) [nM] | AUC (Rattus norvegicus [4]) [µg/L/h] | Cmax [5] [ng/mL] | AUC (Rattus norvegicus [6]) [µg/L/h] | Cmax [7] [ng/mL] | Tmax [8] [min] | half-life [9] [h] | half-life [10] [h] | Tmax [11] [h] | IC50 [3] [nM]
CNc1ncc(C#Cc2cc(C(=O)Nc3cc(-n4cnc(C)c4)cc(C(F)(F)F)c3)ccc2C)cn1 | 85 | 10 | 7 | 6 | 48574 | 11000 | 35809 | 3090 | 1.98 | 7.8 | 7.5 | 2 | 3
Cc1cn(-c2cc(NC(=O)c3ccc(C)c(C#Cc4cnc(NC5CCCCC5)nc4)c3)cc(C(F)(F)F)c2)cn1 | 2710 | 93 | 30 | 458 |  |  |  |  |  |  |  |  | 49
Cc1cn(-c2cc(NC(=O)c3ccc(C)c(C#Cc4cnc(NC(C)C)nc4)c3)cc(C(F)(F)F)c2)cn1 | 1160 | 125 | 27 | 187 |  |  |  |  |  |  |  |  | 23
Cc1cn(-c2cc(NC(=O)c3ccc(C)c(C#Cc4cnc(N)nc4)c3)cc(C(F)(F)F)c2)cn1 | 78 | 8 | 1 | 7 |  |  |  |  |  |  |  |  | 2
Cc1cn(-c2cc(NC(=O)c3ccc(C)c(C#Cc4cnc(Nc5ccccc5)nc4)c3)cc(C(F)(F)F)c2)cn1 | 2400 | 238 | 111 | 161 |  |  |  |  |  |  |  |  | 208
Cc1cn(-c2cc(NC(=O)c3ccc(C)c(C#Cc4cnc(NC(C)(C)C)nc4)c3)cc(C(F)(F)F)c2)cn1 | 135 | 28 | 23 | 24 |  |  |  |  |  |  |  |  | 38
